Measurements: the NIST ThermoML archive (doi:10.1016/j.fluid.2008.08.012)

What was measured:
[1] = xn = mol fraction of the nth substance listed; conditions: 303.15 K, Maximal bubble pressure
[2] = for mass density: 298.15 K, 101.33 kPa; for mass density / vapor or sublimation pressure: Liquid; for surface tension liquid-gas: 303.15 K, Maximal bubble pressure; for vapor or sublimation pressure: Ebulliometric method (Recirculating still)
[3] = refractive index (Na D-line) (dimensionless); conditions: 298.15 K; 101.33 kPa; Liquid; Standard Abbe refractometry

COC(C)(C)C [2-methoxy-2-methylpropane] + C1CCCCC1
[1]
Conditions	surface tension liquid-gas [mN/m]
x1 = 0.046	23.39
x1 = 0.1	22.97
x1 = 0.205	22.23
x1 = 0.308	21.57
x1 = 0.409	21.03
x1 = 0.51	20.58
x1 = 0.614	20.12
x1 = 0.716	19.71
x1 = 0.816	19.34
x1 = 0.901	19.05
x1 = 0.947	18.89

CC(C)=O [acetone]
Conditions	mass density [kg/m3]	refractive index	surface tension liquid-gas [mN/m]
[2]	784.23	–	22.45
[3]	–	1.35732	–

Conditions	vapor or sublimation pressure [kPa]
[2], 327.16 K	94

C1CCCCC1 [cyclohexane]
Conditions	mass density [kg/m3]	refractive index	surface tension liquid-gas [mN/m]
[2]	773.84	–	24.1
[3]	–	1.42508	–

Conditions	vapor or sublimation pressure [kPa]
[2], 351.37 K	94

COC(C)(C)C [2-methoxy-2-methylpropane]
Conditions	mass density [kg/m3]	refractive index	surface tension liquid-gas [mN/m]
[2]	735.45	–	18.7
[3]	–	1.36766	–

[2]
Conditions	vapor or sublimation pressure [kPa]
301.31 K	38.06
303.21 K	41.03
305.59 K	45.05
308.33 K	50.06
310.85 K	55.05
313.2 K	60.06
315.39 K	65.03
317.47 K	70.07
319.41 K	75.05
321.27 K	80.08
323.02 K	85.05
324.7 K	90.06
325.98 K	94
326.31 K	95.05
328.24 K	101.34

COC(C)(C)C [2-methoxy-2-methylpropane] + CC(C)=O
[1]
Conditions	surface tension liquid-gas [mN/m]
x1 = 0.031	22.14
x1 = 0.074	21.76
x1 = 0.171	21.13
x1 = 0.272	20.59
x1 = 0.378	20.09
x1 = 0.484	19.75
x1 = 0.585	19.47
x1 = 0.681	19.22
x1 = 0.784	18.98
x1 = 0.884	18.74
x1 = 0.94	18.55
